{"source": "patent US20200352912A1", "about": "“ANTIMICROBIAL COMPOSITIONS AND METHODS OF USING THE SAME” (The Board Of Supervisors Of Louisiana State University And …, priority 2018, published 2020)", "assay_type_in_all_cases": "cell-based, Staphylococcus aureus", "key": {"[1]": {"tested_on": "clinical MRSA and MSSA strains isolated from a patient's catheter", "test": "planktonic antimicrobial assay, clinical isolates", "experimental": "Effect of COX enzyme inhibitors or PGE2 EP receptor antagonists on microbial growth. The antimicrobial activity of selective COX enzyme inhibitor or PGE2 EP receptor antagonist on the growth of C. albicans DAY185 (A), S. aureus NRS383 (B) and MRSA and MSSA clinical isolates (C). Growth of C. albicans and S. aureus was monitored for up to 24 h in medium alone or supplemented with DMSO or EP receptor antagonists or COX enzyme inhibitor at physiologically relevant concentrations. Data shown are representative of three independent experiments.\nStrains and growth conditions. The methicillin-resistant S. aureus strain NRS383 used in all experiments was obtained from the Network on Antimicrobial Resistance in S. aureus (NARSA) data bank. NRS383 is positive for the toxic shock syndrome toxin (tst) and 6-toxin genes. SJ-MRSA 6 and SJ-SA5 are methicillin-resistant (MRSA) and methicillin-sensitive (MSSA) clinical S. aureus strains respectively isolated from a patient's catheter. […]\nC. albicans and S. aureus were grown as described above. […] Cells were grown with shaking as described above, and 1 ml aliquots were removed each hour in duplicate and optical density at 600 nm measured (OD600) by spectrophotometer (Biomate 3S, Thermo Scientific)."}, "[2]": {"tested_on": "S. aureus mono-species biofilm", "test": "biofilm formation on polystyrene (XTT, CFU)", "experimental": "The effect of L-161,982 on biofilm formation was tested. Mono- and dual-species C. albicans and/or S. aureus biofilms were grown on 96-well plates for 24 h with the indicated concentration of L-161, 982. After incubation, metabolic activity of biofilms was quantified by the XTT assay (A) and then biofilms were disrupted to determine live colony forming units (CFU) (B). The results are cumulative of three independent experiments with duplicate samples. Statistics was performed using One-way ANOVA with the Tukey post-hoc test for the XTT assay. The Mann-Whitney U test was used to analyze CFU data. Significance is indicated as follows: ns—not significant, *P<0.05; *** P<0.001. Error bars represent standard deviation.\nFollowing growth as described above, microbes were washed in phosphate-buffered saline (PBS) by centrifugation, counted on a hemocytometer, and adjusted to 2×10^7 CFU/ml in RPMI buffered with MOPS (165 mM). For monomicrobial biofilms, 50 μl of adjusted C. albicans or S. aureus culture was added to each well of a sterile 96-well cell culture polystyrene microtiter plate (1×10^6 CFU per well); to this, 50 μl of sterile RPMI+MOPS was added. For polymicrobial biofilms, 50 μl of each organism was added per well (1×10^6 CFU of each organism per well). Plates were incubated for 24 h at 37° C. to induce biofilm formation. Following confirmation of mature biofilm growth by macro- and microscopic examination, plates were washed once with 200 μl sterile saline and then 200 μl RPMI+MOPS containing L-161, 982 at various concentrations (6.25-200 μg/ml) added to each well. L-161, 982-free RPMI+MOPS was added to wells with and without microbes to serve as positive and negative controls, respectively. […]\nThe XTT reduction assay was used to determine the metabolic activity of biofilms following treatment with L-161, 982 (17). Briefly, wells were washed once in PBS, and plates incubated at 37° C. for 2 h with 200 μl XTT working reagent (0.5 mg/ml XTT and 1 μM Menadione) and the resulting absorbance measured at 490 nm on a microplate spectrophotometer. […]"}, "[3]": {"tested_on": "S. aureus", "test": "cell membrane integrity by viability (Live/Dead) staining", "conditions": "6 h incubation", "source_text": "To determine the mechanism of action of L-161, 982 against growth of Gram-positive bacteria, we first looked at its effect on cell membrane integrity using viability staining. […] A previous study had reported that the inhibitory effect of L-161, 982 on the proliferation of skeletal muscle myoblasts was due to its ability to induce production of high levels of intracellular reactive oxygen species (ROS) that could be reversed by co-treatment with the antioxidants, N-acetyl cysteine or sodium ascorbate (25).\nAlthough the prostanoid pathway is not conserved in prokaryotes, we questioned whether L-161, 982 inhibited S. aureus growth by increasing intracellular ROS production. […] Future studies will examine other possible mechanisms of action."}}}
{"molecule": "CCCCc1nn(-c2ccccc2C(F)(F)F)c(=O)n1Cc1ccc(-c2ccccc2S(=O)(=O)NC(=O)c2sccc2C)cc1", "note": "[L-161, 982, N-[[4′-[[3-Butyl-1,5-dihydro-5-oxo-1-[2-(trifluoromethyl)phenyl]-4H-1,2,4-triazol-4-yl]methyl][1,1′-biphenyl]-2-yl]sulfonyl]-3-methyl-2-thiophenecarboxamide]", "values": [{"measurement": "growth of clinical MRSA and MSSA strains", "setting": "[1]", "result": "inhibited growth"}, {"measurement": "CFUs of S. aureus, biofilm formation", "setting": "[2]; 6.25 to 25 μg/ml", "result": "significantly reduced"}, {"measurement": "metabolic activity (XTT) during biofilm formation", "setting": "[2]; all concentrations tested, 24 h", "result": "significantly inhibited"}, {"measurement": "CFUs of S. aureus, biofilm formation", "setting": "[2]; concentrations >50 μg/ml", "result": "no viable cells were recovered"}, {"measurement": "cell membrane damage", "setting": "[3]", "result": "no evidence of cell membrane damaged"}]}
